Earlier results in EP3581172B1, “A PHARMACEUTICAL COMPOSITION WITH ENHANCED BIOAVAILABILITY CONTAINING A MEDICAL HERBAL EXTRACT” (TFLL Pharmaceutical Food Supplements and Cosmetic Products …, priority 2018, dated 2019).
Read-outs that look alike come from different tables or passages of the source.

How the values were obtained:
[1] = tested on: colon cancer stimulated by 1,2-dimethylhydrazine (DMH)
breast cancer = conditions: topical curcumin ointment; 7 breast cancer patients
[2] = tested on: esophageal carcinogenesis; conditions: rats, by diet (500 ppm)
adenoma = conditions: rats

In the case of COc1cc(CCC(=O)CC(=O)CCc2ccc(O)c(OC)c2)ccc1O [THC, tetrahydrokurkuminin], the “effect on upper and lower half sections of colon crypts” value [1] is listed as “significant decrease”.

In the case of COc1cc(/C=C/C(=O)CC(=O)/C=C/c2ccc(O)c(OC)c2)ccc1O [curcumin, (1E,6E)-1,7-bis (4-hydroxy-3-methoxyphenyl)-1,6-heptadiene-3,5-dione], the “positive responses (significant reduction in lesion size, pain, itching and leaks), share of patients” value (breast cancer) is listed as 71%, the esophageal carcinogenesis inhibited ([2]; maintenance dose) is listed as 33% and the esophageal carcinogenesis inhibited ([2]; onset dose) is listed as 27%. The decrease in adenoma (adenoma; by diet 0.2% for 15 weeks) was 39%, the decrease in adenoma (adenoma; by diet 0.5% for 15 weeks) was 40% and the water solubility was “almost negligible”.

For COc1ccc(/C=C/C(=O)CC(=O)/C=C/c2ccc(OC)c(OC)c2)cc1OC [dimethoxycurcumin], the “reducing proliferation and stimulating apoptosis, compared to curcumin” value (HCT116 cells) is given as “more effective”.
